From patent US10870647B2, “Imidazopyridine derivative, method for preparing same, and pharmaceutical composition containing same as active ingredient for preventing or treating cancer” (DAEGU-GYEONGBUK MEDICAL INNOVATION FOUNDATION, priority 2016, dated 2020)

Experiments:
Assay in all cases: Kinase selectivity, scanMAX Kinase assay panel (DiscoverX), % control at 1 uM
Assay type in all cases: binding
[1] = biological target: T1, scanMAX Kinase assay panel (Homo sapiens, UniProt P78356); conditions: PIP5K2B; 1 uM; read-out: Percent Control (%)
T1 construct: purchased DiscoverX
T1 sequence (P78356 1-416): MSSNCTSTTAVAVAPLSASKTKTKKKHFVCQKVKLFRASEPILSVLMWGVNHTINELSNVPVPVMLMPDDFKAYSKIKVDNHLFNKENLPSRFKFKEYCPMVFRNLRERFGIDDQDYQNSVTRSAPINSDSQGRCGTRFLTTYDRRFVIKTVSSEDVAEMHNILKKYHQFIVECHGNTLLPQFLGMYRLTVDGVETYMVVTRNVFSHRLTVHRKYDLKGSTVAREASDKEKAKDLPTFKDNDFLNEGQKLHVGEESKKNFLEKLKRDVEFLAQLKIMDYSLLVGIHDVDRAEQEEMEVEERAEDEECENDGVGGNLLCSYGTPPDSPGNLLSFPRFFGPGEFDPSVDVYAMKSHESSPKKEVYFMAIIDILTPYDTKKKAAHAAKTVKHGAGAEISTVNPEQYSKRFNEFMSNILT
Procedure, shortened: (§1)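 A single concentration of 1 uM, in DMSO, is applied across the kinase panel. Activity against an individual enzyme is assigned where % control is less than 35.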

[2] = biological target: T2, scanMAX Kinase assay panel (Homo sapiens, UniProt Q13627); conditions: DYRK1A; 1 uM; read-out: Percent Control (%)
T2 construct: purchased DiscoverX
Procedure, shortened: as §1

[3] = biological target: T3, scanMAX Kinase assay panel (Homo sapiens, UniProt P46734); conditions: MEK3; 1 uM; read-out: Percent Control (%)
T3 construct: purchased DiscoverX
T3 sequence (P46734 1-347): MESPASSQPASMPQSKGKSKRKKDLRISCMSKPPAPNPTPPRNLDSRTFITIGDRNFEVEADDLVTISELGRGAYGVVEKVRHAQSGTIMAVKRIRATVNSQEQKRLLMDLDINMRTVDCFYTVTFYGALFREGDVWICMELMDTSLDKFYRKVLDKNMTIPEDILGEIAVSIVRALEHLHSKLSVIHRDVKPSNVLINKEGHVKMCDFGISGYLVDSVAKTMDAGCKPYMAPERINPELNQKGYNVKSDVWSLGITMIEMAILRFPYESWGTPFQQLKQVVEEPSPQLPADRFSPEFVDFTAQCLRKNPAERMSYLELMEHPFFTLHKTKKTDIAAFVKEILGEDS
Procedure, shortened: as §1

[4] = biological target: T4, scanMAX Kinase assay panel (Homo sapiens, UniProt Q00537); conditions: PCTK2; 1 uM; read-out: Percent Control (%)
T4 construct: purchased DiscoverX
Procedure, shortened: as §1

[5] = biological target: T5, scanMAX Kinase assay panel (Homo sapiens, UniProt Q13164); conditions: ERK5; 1 uM; read-out: Percent Control (%)
T5 construct: purchased DiscoverX
Procedure, shortened: as §1

[6] = biological target: T6, scanMAX Kinase assay panel (Homo sapiens, UniProt O75460); conditions: ERN1; 1 uM; read-out: Percent Control (%)
T6 construct: purchased DiscoverX
Procedure, shortened: as §1

[7] = biological target: T7, scanMAX Kinase assay panel (Homo sapiens, UniProt P36896); conditions: ACVR1B; 1 uM; read-out: Percent Control (%)
T7 construct: purchased DiscoverX
T7 sequence (P36896 24-505): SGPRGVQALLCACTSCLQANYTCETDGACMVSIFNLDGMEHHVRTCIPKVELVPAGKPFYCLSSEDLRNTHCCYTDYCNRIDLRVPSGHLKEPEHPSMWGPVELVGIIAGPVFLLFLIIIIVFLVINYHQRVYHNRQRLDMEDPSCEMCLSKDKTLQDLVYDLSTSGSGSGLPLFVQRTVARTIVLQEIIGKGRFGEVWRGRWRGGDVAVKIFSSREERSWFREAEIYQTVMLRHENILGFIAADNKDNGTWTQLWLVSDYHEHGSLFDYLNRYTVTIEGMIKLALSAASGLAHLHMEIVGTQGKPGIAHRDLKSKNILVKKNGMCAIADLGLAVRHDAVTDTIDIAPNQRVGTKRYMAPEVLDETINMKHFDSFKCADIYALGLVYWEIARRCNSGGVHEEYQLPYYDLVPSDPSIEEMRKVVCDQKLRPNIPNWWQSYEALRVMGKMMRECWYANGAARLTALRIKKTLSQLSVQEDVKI
Procedure, shortened: as §1

[8] = biological target: T8, scanMAX Kinase assay panel (Homo sapiens, UniProt P04049); conditions: RAF1; 1 uM; read-out: Percent Control (%)
T8 construct: purchased DiscoverX
Procedure, shortened: as §1

[9] = biological target: T9, scanMAX Kinase assay panel (Homo sapiens, UniProt Q9Y616); conditions: IRAK3; 1 uM; read-out: Percent Control (%)
T9 construct: purchased DiscoverX
T9 sequence (Q9Y616 1-596): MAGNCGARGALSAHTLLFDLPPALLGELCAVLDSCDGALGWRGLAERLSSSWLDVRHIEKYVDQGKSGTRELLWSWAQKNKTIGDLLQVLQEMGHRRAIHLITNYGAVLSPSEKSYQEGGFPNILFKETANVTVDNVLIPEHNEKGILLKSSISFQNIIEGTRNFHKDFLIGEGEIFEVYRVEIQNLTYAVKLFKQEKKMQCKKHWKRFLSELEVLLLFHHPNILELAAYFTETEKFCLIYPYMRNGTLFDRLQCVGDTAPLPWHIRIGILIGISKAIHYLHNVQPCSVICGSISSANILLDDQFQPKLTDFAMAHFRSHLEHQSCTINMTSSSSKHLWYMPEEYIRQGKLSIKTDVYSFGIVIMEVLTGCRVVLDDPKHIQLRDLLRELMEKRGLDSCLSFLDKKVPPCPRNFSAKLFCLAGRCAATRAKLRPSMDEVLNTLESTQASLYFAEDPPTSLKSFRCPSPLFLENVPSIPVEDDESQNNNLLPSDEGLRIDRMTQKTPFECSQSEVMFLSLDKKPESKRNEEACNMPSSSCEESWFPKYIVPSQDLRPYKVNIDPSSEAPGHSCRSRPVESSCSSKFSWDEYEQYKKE
Procedure, shortened: as §1

[10] = biological target: T10, scanMAX Kinase assay panel (Homo sapiens, UniProt P29376); conditions: LTK; 1 uM; read-out: Percent Control (%)
T10 construct: purchased DiscoverX
Procedure, shortened: as §1

[11] = biological target: T11, scanMAX Kinase assay panel (Plasmodium falciparum, UniProt P62344); conditions: PFCDPK1 (P. falciparum); 1 uM; read-out: Percent Control (%)
T11 construct: purchased DiscoverX
Procedure, shortened: as §1

T6 sequence (O75460 19-977): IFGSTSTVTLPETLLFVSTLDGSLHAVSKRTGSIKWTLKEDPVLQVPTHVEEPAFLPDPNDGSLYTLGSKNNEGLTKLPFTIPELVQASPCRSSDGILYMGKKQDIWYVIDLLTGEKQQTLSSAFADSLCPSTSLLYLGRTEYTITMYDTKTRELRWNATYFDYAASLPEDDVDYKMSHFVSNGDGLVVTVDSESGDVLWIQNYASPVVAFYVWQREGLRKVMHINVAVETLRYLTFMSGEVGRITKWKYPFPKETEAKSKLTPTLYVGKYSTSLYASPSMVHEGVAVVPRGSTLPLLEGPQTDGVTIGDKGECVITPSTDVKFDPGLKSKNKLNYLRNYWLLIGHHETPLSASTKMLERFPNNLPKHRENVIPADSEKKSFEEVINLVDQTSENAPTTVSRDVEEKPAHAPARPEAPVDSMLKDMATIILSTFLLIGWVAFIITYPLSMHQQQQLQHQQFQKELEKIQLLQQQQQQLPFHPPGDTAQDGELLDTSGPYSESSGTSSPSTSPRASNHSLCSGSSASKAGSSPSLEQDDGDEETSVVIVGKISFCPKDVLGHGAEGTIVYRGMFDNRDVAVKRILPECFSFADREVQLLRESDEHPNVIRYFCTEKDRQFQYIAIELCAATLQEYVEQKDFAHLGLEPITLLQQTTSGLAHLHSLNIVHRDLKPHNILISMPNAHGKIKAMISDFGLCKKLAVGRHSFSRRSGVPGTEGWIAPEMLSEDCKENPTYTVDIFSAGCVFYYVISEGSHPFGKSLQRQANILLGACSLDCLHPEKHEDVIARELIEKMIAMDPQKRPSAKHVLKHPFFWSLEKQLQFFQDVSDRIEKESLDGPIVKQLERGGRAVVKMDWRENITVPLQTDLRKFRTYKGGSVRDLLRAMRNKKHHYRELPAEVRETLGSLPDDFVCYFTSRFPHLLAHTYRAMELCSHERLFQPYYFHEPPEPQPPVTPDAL
T11 sequence (P62344 whole entry): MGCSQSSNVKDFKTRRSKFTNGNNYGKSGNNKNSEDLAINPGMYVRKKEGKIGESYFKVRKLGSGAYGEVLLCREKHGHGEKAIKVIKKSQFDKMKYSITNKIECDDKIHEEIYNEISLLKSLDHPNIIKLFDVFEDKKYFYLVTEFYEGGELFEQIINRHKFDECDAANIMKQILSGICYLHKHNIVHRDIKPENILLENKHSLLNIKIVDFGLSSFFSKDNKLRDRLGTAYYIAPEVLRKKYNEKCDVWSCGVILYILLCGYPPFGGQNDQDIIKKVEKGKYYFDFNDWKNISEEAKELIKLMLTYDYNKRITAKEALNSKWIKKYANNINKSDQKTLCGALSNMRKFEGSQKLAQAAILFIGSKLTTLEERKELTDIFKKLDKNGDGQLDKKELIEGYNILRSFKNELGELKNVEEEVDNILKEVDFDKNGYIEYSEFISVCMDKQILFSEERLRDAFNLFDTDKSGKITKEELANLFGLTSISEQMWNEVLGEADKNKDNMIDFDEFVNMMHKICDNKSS
T5 sequence (Q13164 whole entry): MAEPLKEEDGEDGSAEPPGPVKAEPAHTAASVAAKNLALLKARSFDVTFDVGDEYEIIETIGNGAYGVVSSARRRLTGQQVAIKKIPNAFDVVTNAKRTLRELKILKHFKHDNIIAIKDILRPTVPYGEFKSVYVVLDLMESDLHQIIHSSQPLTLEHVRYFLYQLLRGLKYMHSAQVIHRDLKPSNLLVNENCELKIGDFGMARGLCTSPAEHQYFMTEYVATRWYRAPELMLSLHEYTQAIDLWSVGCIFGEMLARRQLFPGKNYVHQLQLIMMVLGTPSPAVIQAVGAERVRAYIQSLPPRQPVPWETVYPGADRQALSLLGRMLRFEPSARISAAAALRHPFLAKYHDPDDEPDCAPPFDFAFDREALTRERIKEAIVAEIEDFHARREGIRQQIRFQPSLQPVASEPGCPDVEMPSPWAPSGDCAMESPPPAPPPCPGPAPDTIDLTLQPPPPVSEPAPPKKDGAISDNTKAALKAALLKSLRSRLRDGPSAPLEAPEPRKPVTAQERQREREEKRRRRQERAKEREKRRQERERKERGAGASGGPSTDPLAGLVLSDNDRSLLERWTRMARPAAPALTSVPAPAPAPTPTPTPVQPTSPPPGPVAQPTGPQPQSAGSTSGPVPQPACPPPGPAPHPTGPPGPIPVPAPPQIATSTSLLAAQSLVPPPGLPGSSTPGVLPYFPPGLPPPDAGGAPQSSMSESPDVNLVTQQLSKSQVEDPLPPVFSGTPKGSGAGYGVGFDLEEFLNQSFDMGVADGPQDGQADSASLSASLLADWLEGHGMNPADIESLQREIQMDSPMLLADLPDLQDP
T4 sequence (Q00537 whole entry): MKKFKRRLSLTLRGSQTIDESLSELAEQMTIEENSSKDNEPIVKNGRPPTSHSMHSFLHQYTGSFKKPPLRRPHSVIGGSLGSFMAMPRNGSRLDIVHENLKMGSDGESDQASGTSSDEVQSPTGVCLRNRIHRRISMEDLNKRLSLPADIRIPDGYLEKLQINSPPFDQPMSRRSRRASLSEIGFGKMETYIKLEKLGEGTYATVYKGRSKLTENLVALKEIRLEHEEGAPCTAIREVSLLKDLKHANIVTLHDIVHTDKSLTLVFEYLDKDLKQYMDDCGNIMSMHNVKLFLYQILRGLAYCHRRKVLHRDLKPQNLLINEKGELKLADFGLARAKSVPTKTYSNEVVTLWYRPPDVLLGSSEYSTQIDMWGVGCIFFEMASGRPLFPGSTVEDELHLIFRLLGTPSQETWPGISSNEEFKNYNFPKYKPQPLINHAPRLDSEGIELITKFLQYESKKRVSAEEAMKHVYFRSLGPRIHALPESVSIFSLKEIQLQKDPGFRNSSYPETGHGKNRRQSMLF
T8 sequence (P04049 whole entry): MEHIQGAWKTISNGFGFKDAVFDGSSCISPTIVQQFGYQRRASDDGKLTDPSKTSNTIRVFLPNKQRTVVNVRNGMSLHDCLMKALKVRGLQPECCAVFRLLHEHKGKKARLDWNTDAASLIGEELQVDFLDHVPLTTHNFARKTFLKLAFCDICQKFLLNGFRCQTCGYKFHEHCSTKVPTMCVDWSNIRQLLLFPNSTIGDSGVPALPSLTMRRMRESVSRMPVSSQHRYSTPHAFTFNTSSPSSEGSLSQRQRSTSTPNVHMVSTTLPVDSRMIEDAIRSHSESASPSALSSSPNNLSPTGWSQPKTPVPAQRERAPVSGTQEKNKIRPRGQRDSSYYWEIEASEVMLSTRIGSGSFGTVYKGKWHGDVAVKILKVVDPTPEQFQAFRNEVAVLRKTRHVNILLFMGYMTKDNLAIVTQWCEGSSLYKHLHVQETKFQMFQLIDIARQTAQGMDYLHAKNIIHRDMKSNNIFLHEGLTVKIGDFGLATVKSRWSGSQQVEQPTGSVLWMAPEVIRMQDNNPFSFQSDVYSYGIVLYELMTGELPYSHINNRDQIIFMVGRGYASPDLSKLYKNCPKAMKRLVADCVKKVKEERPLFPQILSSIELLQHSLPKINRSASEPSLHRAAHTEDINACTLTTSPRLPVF
T10 sequence (P29376 17-864): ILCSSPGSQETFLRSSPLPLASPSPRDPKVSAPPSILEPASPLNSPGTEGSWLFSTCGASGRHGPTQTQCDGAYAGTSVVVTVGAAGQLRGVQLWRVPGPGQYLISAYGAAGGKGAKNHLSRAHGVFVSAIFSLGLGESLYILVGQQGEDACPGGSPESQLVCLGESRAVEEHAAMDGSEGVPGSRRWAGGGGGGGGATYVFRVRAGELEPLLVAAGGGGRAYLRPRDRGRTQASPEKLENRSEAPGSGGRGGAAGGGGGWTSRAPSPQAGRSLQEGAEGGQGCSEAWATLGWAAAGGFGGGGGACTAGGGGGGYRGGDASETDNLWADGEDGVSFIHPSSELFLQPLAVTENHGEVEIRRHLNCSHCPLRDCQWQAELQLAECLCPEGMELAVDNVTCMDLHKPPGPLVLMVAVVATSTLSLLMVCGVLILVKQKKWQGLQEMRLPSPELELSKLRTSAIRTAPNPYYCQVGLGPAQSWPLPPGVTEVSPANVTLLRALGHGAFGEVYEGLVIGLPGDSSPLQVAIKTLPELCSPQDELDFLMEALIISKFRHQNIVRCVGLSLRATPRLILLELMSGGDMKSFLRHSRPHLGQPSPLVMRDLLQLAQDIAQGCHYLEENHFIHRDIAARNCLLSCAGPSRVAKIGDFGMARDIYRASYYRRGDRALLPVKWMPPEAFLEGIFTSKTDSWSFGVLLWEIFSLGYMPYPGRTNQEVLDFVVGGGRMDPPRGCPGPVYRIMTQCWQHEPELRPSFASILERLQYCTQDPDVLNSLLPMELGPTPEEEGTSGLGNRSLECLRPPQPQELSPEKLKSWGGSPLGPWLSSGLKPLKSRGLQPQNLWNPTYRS

## Cc1ccc(NC(=O)C2(C(=O)Nc3ccc(F)cc3)CC2)cc1C#Cc1cnc2c(Nc3cnn(C(C)C)c3)cccn12 [Example 78]
[1]
  remaining binding at 1 µM: 79%
[2]
  remaining binding at 1 µM: 100%
[3]
  remaining binding at 1 µM: 96%
[4]
  remaining binding at 1 µM: 100%
[5]
  remaining binding at 1 µM: 100%
[6]
  remaining binding at 1 µM: 97%
[7]
  remaining binding at 1 µM: 100%
[8]
  remaining binding at 1 µM: 100%
[9]
  remaining binding at 1 µM: 87%
[10]
  remaining binding at 1 µM: 94%
[11]
  remaining binding at 1 µM: 97%

## Cc1cn(-c2cc(NC(=O)c3ccc(C)c(C#Cc4cnc5c(Nc6cnn(C)c6)cccn45)c3)cc(C(F)(F)F)c2)cn1 [Example 12, 4-methyl-N-(3-(4-methyl-1H-imidazol-1-yl)-5-(trifluoromethyl)phenyl)-3-((8-((1-methyl-1H-pyrazol-4-yl)amino)imidazo[1,2-a]pyridin-3-yl)ethynyl)benzamide]
[1]
  remaining binding at 1 µM: 100%
[2]
  remaining binding at 1 µM: 97%
[3]
  remaining binding at 1 µM: 100%
[4]
  remaining binding at 1 µM: 98%
[5]
  remaining binding at 1 µM: 90%
[6]
  remaining binding at 1 µM: 100%
[7]
  remaining binding at 1 µM: 94%
[8]
  remaining binding at 1 µM: 42%
[9]
  remaining binding at 1 µM: 72%
[10]
  remaining binding at 1 µM: 12%
[11]
  remaining binding at 1 µM: 55%

## Cc1ccc(C(=O)Nc2ccc(CN3CCN(C)CC3)c(C(F)(F)F)c2)cc1C#Cc1cnc2c(Nc3cnn(C)c3)cccn12 [Example 1, 4-methyl-3-((8-((1-methyl-1H-pyrazol-4-yl)amino)imidazo[1,2-a]pyridin-3-yl)ethynyl)-N-(4-((4-methylpiperazin-1-yl)methyl)-3-(trifluoromethyl)phenyl)benzamide]
[1]
  remaining binding at 1 µM: 82%
[2]
  remaining binding at 1 µM: 100%
[3]
  remaining binding at 1 µM: 81%
[4]
  remaining binding at 1 µM: 19%
[5]
  remaining binding at 1 µM: 78%
[6]
  remaining binding at 1 µM: 62%
[7]
  remaining binding at 1 µM: 89%
[8]
  remaining binding at 1 µM: 11%
[9]
  remaining binding at 1 µM: 84%
[10]
  remaining binding at 1 µM: 9%
[11]
  remaining binding at 1 µM: 1%
